Laboratory results taken from patent publication US20230286973A1, “PROTEIN SECRETION INHIBITORS” (KEZAR LIFE SCIENCES, priority 2020, published 2023).

What was measured:
[1] = tested on: HER3-ss+4aa/Gaussia Luciferase; assay: Dox-Induced Her3-ss-Gluc Assay; format: cell-based; conditions: 24 hr Dox induction; 293FRT/TO cells; read-out: 24 hr Dox Inducible Her3(ss + 4)Gluc 293FRT/TO: Mean IC50
How it was run: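 Flp-In 293 T-REx cells, stable HER3-ss+4aa/Gaussia luciferase insert, hygromycin/blasticidin selected; plated day before; compound in DMSO/media + doxycycline; 37° C., 5% CO2.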

[2] = Liver Microsome Stability Assay (rat); conditions: rat liver microsomes, with NADPH, 1.0 uM compound
Description: (§1) Stability of a compound was assessed in the presence of liver microsomes from various sources—mouse, rat, monkey and human liver microsomes. 1.0 uM compound, 0.4% DMSO in 0.1 M Potassium Phosphate with 1.0 mg/mL liver microsomes, were incubated at 37° C. with or without 1 mM NADPH. The samples were quenched at 0, and 30 minutes.

[3] = tested on: TNFα-FL/Gaussia Luciferase; assay: Dox Induced TNFα-FL-Gluc Assay; format: cell-based; conditions: for IC50: 24 hr Dox induction, 293FRT/TO cells, read-out: 24 hr Dox Inducible TNFaFLGluc 293FRT/TO: Mean IC50; for 24 hr Dox Inducible TNFaFLGluc 293FRT/TO: TNF/PD1: ratio of TNFaFLGluc IC50 to PD1ssGluc IC50
How it was run: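 Cell line: stable Flp-In 293 T-REx, TNFα-FL(1-233)-Gaussia luciferase fusion, T-REx-inducible. Plated day -1; compounds in DMSO/media + doxycycline, 37 °C, 5% CO2. Undefined stereocentres = mixture tested.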

[4] = tested on: multiple myeloma cell line NCI-H929; assay: H929 Cell Viability Assay; format: cell-based, human; conditions: Homo sapiens, NCI-H929, 48 h, NCI-H929 cells, Celltiter-Glo
How it was run: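 Cells in RPMI 1640/10% FBS; compound dilutions in DMSO/media; 48 h, 37° C, 5% CO2; CellTiter-Glo luciferase readout for viability.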

[5] = tested on: PD1-ss+10aa/Gaussia Luciferase; assay: Dox-Induced PD1-ss-Gluc Assay; format: cell-based; conditions: 24 hr Dox induction; 293FRT/TO cells; read-out: 24 hr Dox Inducible PD1ssGluc 293FRT/TO: Mean IC50
How it was run: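 The cell line was made by transfecting Flp-In 293 T-REx cells with a PD1 signal sequence+10aa–Gaussia luciferase fusion under T-REx control and selecting with hygromycin and blasticidin. Cells were seeded, and next day compound plus doxycycline was added at 37 °C, 5% CO2.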

[6] = tested on: multiple myeloma cell line U266B1; assay: U266 Cell Viability Assay; format: cell-based, human; conditions: Homo sapiens, U-266, 48 h, U266B1 cells, Celltiter-Glo
How it was run: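 Luminescent ATP read-out (CellTiter-Glo) after 48 h compound exposure at 37° C., 5% CO2; cells maintained in RPMI 1640/10% FBS/2 mM glutamine/pen-strep, compounds diluted in DMSO/media.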

[7] = Liver Microsome Stability Assay (human); conditions: human liver microsomes, with NADPH, 1.0 uM compound
Description: as §1

[8] = tested on: IL-2-FL/Gaussia Luciferase; assay: Dox Induced IL2-FL-Gluc Assay; format: cell-based; conditions: for IC50: 24 hr Dox induction, 293FRT/TO cells, read-out: 24 hr Dox Inducible IL2FLGluc 293FRT/TO: Mean IC50; for 24 hr Dox Inducible IL2FLGluc 293FRT/TO: IL2/PD1: ratio of IL2FLGluc IC50 to PD1ssGluc IC50
How it was run: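 Stable Flp-In 293 T-REx line, Tet-regulated IL-2 (aa 1-153)–Gaussia luciferase fusion; hygromycin/blasticidin selected. Plated day -1; compound + doxycycline added next day; 37° C, 5% CO2.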

[9] = Liver Microsome Stability Assay (monkey); conditions: monkey liver microsomes, with NADPH, 1.0 uM compound
Description: as §1

[10] = Liver Microsome Stability Assay (mouse); conditions: mouse liver microsomes, with NADPH, 1.0 uM compound
Description: as §1

SMILES	IC50 [1] [nM]	Liver Microsome Stability (Multiple Species): Rat - % Remaining after 30 min w/NADPH [2] [%]	IC50 [3] [nM]	24 hr Dox Inducible TNFaFLGluc 293FRT/TO: TNF/PD1 [3]	EC50 [4] [nM]	IC50 [5] [nM]	EC50 [6] [nM]	Liver Microsome Stability (Multiple Species): Human - % Remaining after 30 min w/NADPH [7] [%]	IC50 [8] [nM]	24 hr Dox Inducible IL2FLGluc 293FRT/TO: IL2/PD1 [8]	Liver Microsome Stability (Multiple Species): Monkey - % Remaining after 30 min w/NADPH [9] [%]	Liver Microsome Stability (Multiple Species): Mouse - % Remaining after 30 min w/NADPH [10] [%]
CC(=O)N1CCC(Oc2ccc(N3CCC[C@@H]3c3csc(NC(=O)c4cccn4Cc4ccnc(F)c4)n3)cc2)CC1 [Compound A62, (R)-N-(4-(1-(4-((1-acetylpiperidin-4-yl)oxy)phenyl)pyrrolidin-2-yl)thiazol-2-yl)-1-((2-fluoropyridin-4-yl)methyl)-1H-pyrrole-2-carboxamide]	35.7	45.1	251	16.7	373	15	> 25000	34.3	29.8	2	21.4	52.7
CC(=O)N1CCCC(c2ccc(N3CCC[C@@H]3c3csc(NC(=O)c4cccn4Cc4ccncc4)n3)cc2)C1 (stereo partly drawn) [Compound A63, N-(4-((2R)-1-(4-(1-acetylpiperidin-3-yl)phenyl)pyrrolidin-2-yl)thiazol-2-yl)-1-(pyridin-4-ylmethyl)-1H-pyrrole-2-carboxamide]	130	6.07	1060	13.2	1780	80	> 25000	2.22	149	1.9	1.18	3.64
CC(=O)NCc1ccc(N2CCC[C@@H]2c2csc(NC(=O)c3cccn3Cc3ccnc(F)c3)n2)cc1 [Compound A64, (R)-N-(4-(1-(4-(acetamidomethyl)phenyl)pyrrolidin-2-yl)thiazol-2-yl)-1-((2-fluoropyridin-4-yl)methyl)-1H-pyrrole-2-carboxamide]	19.4	6.39	164	15.4	203	10.6	> 25000	1.39	27	2.5	0.78	13.7
NC(=O)c1ccc(N2CCC[C@@H]2c2csc(NC(=O)c3cccn3Cc3ccnc(F)c3)n2)cc1 [Compound A65, (R)-N-(4-(1-(4-carbamoylphenyl)pyrrolidin-2-yl)thiazol-2-yl)-1-((2-fluoropyridin-4-yl)methyl)-1H-pyrrole-2-carboxamide]	6.49	1.1	65.5	31	81.2	2.11	> 25000	22.1	7.99	3.8	0.35	7.68
CC(=O)N[C@H](C)c1ccc(N2CCC[C@@H]2c2csc(NC(=O)c3cccn3Cc3ccncc3)n2)cc1 [Compound A66, N-(4-((R)-1-(4-((R)-1-acetamidoethyl)phenyl)pyrrolidin-2-yl)thiazol-2-yl)-1-(pyridin-4-ylmethyl)-1H-pyrrole-2-carboxamide]	59.7	5.19	584	21.5	416	27.2	> 25000	2.98	69	2.5	2.72	30
C[C@@H](N)c1ccc(N2CCC[C@@H]2c2csc(NC(=O)c3cccn3Cc3ccncc3)n2)cc1 [Compound A67, N-(4-((R)-1-(4-((R)-1-aminoethyl)phenyl)pyrrolidin-2-yl)thiazol-2-yl)-1-(pyridin-4-ylmethyl)-1H-pyrrole-2-carboxamide]	65.1	51.9	862	36.4	562	23.6	6860	28.9	55	2.3	40.4	82.3
CC(=O)Nc1ccc(N2CCC[C@@H]2c2csc(NC(=O)c3cccn3Cc3ccnc(F)c3)n2)cc1 [Compound A68, (R)-N-(4-(1-(4-acetamidophenyl)pyrrolidin-2-yl)thiazol-2-yl)-1-((2-fluoropyridin-4-yl)methyl)-1H-pyrrole-2-carboxamide]	4.98	16.9	44.1	19	44.6	2.32	> 25000	25.8	6.04	2.6	11.8	27.5
CC(=O)N[C@@H](C)c1ccc(N2CCC[C@@H]2c2csc(NC(=O)c3cccn3Cc3ccnc(F)c3)n2)cc1 [Compound A69, N-(4-((R)-1-(4-((S)-1-acetamidoethyl)phenyl)pyrrolidin-2-yl)thiazol-2-yl)-1-((2-fluoropyridin-4-yl)methyl)-1H-pyrrole-2-carboxamide]	60.4	35	330	6.35	3180	52	> 25000	1.43	116	2.2	0.47	12.1
